Laboratory results from US12377077B2, “Methods and formulations to treat mitochondrial dysfunction” (The Board of Trustees of the Leland Stanford Junior …, priority 2018, dated 2025).
Entries after “also recorded” stand apart in the source; their conditions may differ.

Key:
[1] = tested on: NGLY1 deficient fibroblasts; assay: Oxygen consumption rate (OCR), XF96 extracellular flux analyzer; format: cell-based, human; conditions: PT1 vs DMSO, FIG. 6C
Procedure: Methods: Oxygen consumption rate (OCR) was measured using an XF96 extracellular flux analyzer (Seahorse Biosciences). Fibroblasts were seeded at 10×10^3 cell/well in 100 ul media containing 8.3 mM glucose and supplemented with 10% fetal bovine serum (FBS) (Fisher Scientific), 1% Penicillin-Streptomycin (10,000 U/mL)(Life Technologies), 1% glutaMAX (Life Technologies), 1% uridine (5 mg/ml) and 1% pyruvate (11 mg/ml) on an XF 96 well plate at 37° C., 5% CO2. The following day the medium was replaced with the mitochondrial stressor media (details above) with or without PT1, A-769662, and AICAR. After 48 hours the stressor media was replaced with 175 μl unbuffered XF base DMEM medium (Fisher Scientific) with the same constituents as the mitochondrial stressor medium and incubated at 37° C. for 30 min for equilibrium before the measurements. OCR Baseline measurements were measured three times, once every five minutes. After the experiment, cell content was estimated by Calcein AM fluorescence intensity (FI) and OCR was calculated as OCR divided by FI.

[2] = tested on: sodium iodate (SI) induced AMD model; assay: Sodium iodate (SI) induced AMD model: funduscopy, H&E retinal sections, ONL thickness, ERG; format: in vivo, mice
Procedure: Methods: To generate an AMD model, mice were treated with 100 mg/kg of PT1 (or vehicle) 24 hrs and 12 hrs prior to SI (or vehicle) treatment, then treated every 24 hrs for 3 days post-SI. Both PT1 and SI were delivered by intraperitoneal (IP) injections and animals were phenotyped 3 days post-SI administration. Mice were anesthetized and their pupils dilated using 1% atropine sulfate, 2.5% phenylephrine hydrochloride, and 0.5% proparacaine hydrochloride. Funduscopy was performed using the Micron III small animal retinal imaging AD camera (Phoenix Research Laboratories, INC). Retinal function was evaluated by recording of dark- and light-adapted ERG (Espion E2 System, Diagnosys LLC). Mice were dark adapted overnight before ERG recording, and all procedures were performed in the dark or under dim red light. Mice were anesthetized and their pupils dilated as described above. For the ERG recordings, electrodes were placed on the center of cornea. A ground needle electrode was placed in the base of the tail, and reference needle electrode was placed subdermally between the eyes. The a-wave amplitude was measured from the baseline to the trough of the a-wave, and b-wave amplitude was measured from the trough of the a-wave to the peak of the b-wave.

[3] = tested on: COX10 deficient fibroblasts; assay: Cell viability (Calcein AM) in siRNA knockdown study; format: cell-based, human; conditions: PT1 alone and siCNT+PT1 vs DMSO and siAMPK+PT1; FIG. 4B
Procedure: Methods: Cell growth was measured by a fluorometric method using Calcein AM (Anaspec). Mitochondrial stressor media was removed, wells washed with PBS and then incubated with 500 ul/well of 800 nM Calcein AM in PBS for 30 min at 37 C, 5% CO2. Cell viability was measured by values obtained using a 485 nm excitation with the Flouroskan Ascent Microplate Fluorometer (Thermo Scientific).
(§1) To test whether the cellular response to PT1 is a result of AMPK activation itself, or is merely a result of nonspecific interactions, an siRNA knockdown strategy was used. siRNA for PRKAA1 (s101) and a negative control (Life Technologies) were incubated with Hiperfect reagent (Qiagen) in media containing DMEM, 1% Penicillin-Streptomycin (10,000 U/mL) (Life Technologies), 1% glutaMAX (Life Technologies) but no serum and allowed to complex for 10 min at room temperature. […] At the end of the incubation period, the cells were analyzed for levels of AMPK and pAMPK by western blot analysis (see protocol above) or incubated for six additional days with PT1 (or DMSO as untreated control) and assessed for viability by Calcein AM. COX10-deficient fibroblasts were treated with PT1 and either siAMPK or siCNT, and responses were evaluated for pAMPK protein expression by western blotting (FIG. 4A), cell viability by Calcein AM fluorescence assay (FIG. 4B), and cell morphology by phase contrast microscopy (FIGS. 4C-4F)

[4] = tested on: pAMPK; assay: pAMPK western blot after siRNA knockdown of PRKAA1 in COX10 deficient fibroblasts; format: cell-based, human; conditions: siAMPK+PT1 compared to siCNT+PT1
Procedure: Methods: Western blotting was performed to identify pAMPK levels in cells treated with PT1. Cells were lysed with RIPA buffer supplemented with Na-Orthovanadate, PMSF, and Protease Inhibitor cocktail. Whole cell extracts were fractionated by SDS-PAGE and transferred to a polyvinylidene difluoride membrane using a transfer apparatus according to the manufacturer's protocols (Bio-Rad). After incubation with 5% nonfat milk in TBST (10 mM Tris, pH 8.0, 150 mM NaCl, 0.5% Tween 20) for 60 min, the membrane was washed once with TBST and incubated with antibodies against AMPK (1:1,000), pAMPK (1:1,000), actin (1:10,000) at 4° C. overnight. […]
as §1, with “COX10-deficient fibroblasts were treated with PT1 and either siAMPK or siCNT, and responses were evaluated for pAMPK protein expression by western blotting (FIG. 4A), cell viability by Calcein AM fluorescence assay (FIG. 4B), and cell morphology by phase contrast microscopy (FIGS. 4C-4F)” left out

[5] = tested on: pAMPK; assay: pAMPK western blot time course in SURF1 deficient fibroblasts; format: cell-based, human
Procedure: Methods: Western blotting was performed to identify pAMPK levels in cells treated with PT1. Cells were lysed with RIPA buffer supplemented with Na-Orthovanadate, PMSF, and Protease Inhibitor cocktail. Whole cell extracts were fractionated by SDS-PAGE and transferred to a polyvinylidene difluoride membrane using a transfer apparatus according to the manufacturer's protocols (Bio-Rad). After incubation with 5% nonfat milk in TBST (10 mM Tris, pH 8.0, 150 mM NaCl, 0.5% Tween 20) for 60 min, the membrane was washed once with TBST and incubated with antibodies against AMPK (1:1,000), pAMPK (1:1,000), actin (1:10,000) at 4° C. overnight. Membranes were washed three times for 5 min and incubated with a 1:10,000 dilution of horseradish peroxidase-conjugated anti-mouse or anti-rabbit antibodies for 2 h. Blots were washed with TBST three times and developed with the ECL system (Thermo Scientific) according to the manufacturer's protocols.

[6] = tested on: ischemic stroke model; assay: Ischemic stroke model, transient middle cerebral artery occlusion, TTC staining; format: in vivo, mice; conditions: PT1 100 mg/kg IP vs vehicle
Procedure: Methods: To generate an ischemic stroke model, ischemic lesions were induced by transiently occluding the middle cerebral artery for 45 minutes, followed by reperfusion. Mice were then injected intraperitoneally with either 100 mg/kg of PT1 or vehicle in two doses, 1 hour and 24 hours post-occlusion, and sacrificed one hour later for terminal tissue collection. Isolated brains were placed in cold saline for 20 minutes, sliced in seven coronal slices (2 mm thick), and stained in a 1.0% 2,3,5-triphenyltetrazolium chloride (TTC) solution in saline at 37° C. for 30 minutes. The stained brain tissues were fixed in 10% formalin in phosphate-buffered saline. The images were captured using a CCD camera (Panasonic Corporation, Japan) and the unstained damaged areas were defined as infarcted tissue and were quantified using Image Pro Plus 4.1 software (Media Cybernetics, Silver Spring, MD).

`Cc1cc(-c2ccc(C=C3SC(=S)N(c4ccc(Cl)c(C(=O)O)c4)C3=O)o2)c([N+](=O)[O-])cc1C` [PT1] was tested, and the “improvement in basal respiration (basal OCR)” value [1] was 16%, the “funduscopy, signs of retinal degeneration (white deposits)” value ([2]; +SI, +PT1 vs +SI, 100 mg/kg IP, FIG. 9A, 100 mg/kg) was “improved signs of retinal degeneration; also recorded: Fewer white deposits” and the “H&E retinal sections: ONL thinning” value ([2]; +SI, +PT1 vs +SI, FIG. 9B) was “protection against ONL thinning; also recorded: protects against ONL thinning”. For the same molecule, the “H&E retinal sections: melanin debris” value ([2]; +SI, +PT1 vs +SI, FIG. 9B) was “decreases melanin debris”, the “H&E retinal sections: photoreceptor IS/OS morphology” value ([2]; +SI, +PT1 vs +SI, FIG. 9B) was “prevents alterations in photoreceptor IS/OS morphology” and the ONL thickness ([2]; +SI, +PT1 vs +SI, FIG. 9C) was “greater thickness; also recorded: significantly improved”. For the same molecule, the “electroretinography, rod responses (scotopic a-wave and b-wave)” value ([2]; +SI, +PT1 vs +SI, FIG. 9D) was “improved electrical response; also recorded: significantly increased rod responses”, the “ONL thickness, PT1 treatment alone” value ([2]; −SI, +PT1 vs −SI) was “does not alter ONL thickness” and the “funduscopy, PT1 treatment alone” value ([2]; −SI, +PT1 vs −SI) was “similar, normal tissue; also recorded: does not alter funduscopy results”. For the same molecule, the cell viability [3] was “increased viability”, the “decrease in pAMPK levels” value [4] was 63% and the “time of peak pAMPK levels post PT1 treatment” value [5] was 24 hours. The “time of return of pAMPK levels to baseline” value [5] was 48 hours, the “time by which pAMPK levels increase post PT1 treatment” value ([5]; pAMPK normalized to actin) was at most 2 hours and the “percent of infarct tissue in brain” value ([6]; FIG. 10A) was “marked improvement”. For the same molecule, the “infarcted regions in TTC-stained brain slices” value ([6]; FIGS. 10B-10C, 100 mg/kg) was “much lower amounts of ischemic tissue; also recorded: reduction in size of the infarcted regions”.
